# Several values for one entry are separate records, joined by “and”; a condition that tells them apart may be missing. Identical values can stand only once. Like-named read-outs stand apart in the source and are kept apart here.
# Key:
# [1] = test system: four cancer cell lines; assay: Cell viability assay (WST-8), four cancer cell lines; assay type: cell-based, human; settings: concentrations up to 1000 nM, 72 h
# Experimental: Cell viability assay was performed as previously described. The effect of DCN1 inhibitors on cell growth was evaluated by a WST-8 [2-(2-methoxy-4-nitrophenyl)-3-(4-nitrophenyl)-5-(2,4-disulfophenyl)-2H-tetrazolium, monosodium salt assay (Dojindo Molecular Technologies, Inc). Cells (2000–3000 cells in each well) were seeded in 96-well tissue culture plates in medium (100 μL) and treated with serial dilution of DCN1 inhibitors for 3 days. At the end of incubation, WST-8 dye (20 μL) was added to each well and incubated for 1–3 h, then the absorbance was measured in a microplate reader (Molecular Devices) at 450 nm. Cell growth inhibition was evaluated as the ratio of the absorbance of the sample to that of the control. The values were inserted into Prism software, and the curves and the EC50 values were produced by Prism software.
# [2] = target: T1, cellular DCN3 protein in U2OS cells (Homo sapiens, UniProt Q8IWE4); assay: Cellular thermal shift assay (CETSA), DCN3; assay type: cell-based; settings: concentrations up to 1000 nM
# T1 construct: endogenous in cells; host or cells: U2OS
# T1 sequence (Q8IWE4 whole entry): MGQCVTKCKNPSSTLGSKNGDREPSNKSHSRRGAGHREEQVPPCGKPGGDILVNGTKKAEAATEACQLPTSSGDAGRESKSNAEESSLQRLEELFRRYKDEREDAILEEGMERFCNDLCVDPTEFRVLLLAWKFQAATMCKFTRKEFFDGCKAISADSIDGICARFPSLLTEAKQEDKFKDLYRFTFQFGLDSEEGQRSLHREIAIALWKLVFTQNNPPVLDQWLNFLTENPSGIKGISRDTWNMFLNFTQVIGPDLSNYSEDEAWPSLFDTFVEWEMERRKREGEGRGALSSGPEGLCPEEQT
# Experimental: (§1) CETSA was performed as previously described. The U2OS cells (5 × 10^5 per sample) were treated with compounds or with DMSO for 1 h, washed with PBS for three times, and dissolved in 50 µL PBS supplemented with protease inhibitor, followed by heating at 53 °C in a Mastercycler gradient (Eppendorf, New York, USA). Treated cells were then subjected to snap-freezing in liquid nitrogen and thawed on ice for three cycles. The protein level of DCN1 and DCN3 in equal amount of the supernatant was examined by western blot methods. GAPDH was used as a control. Results are representative of three independent experiments.
# [3] = target: T2, cellular DCN1 protein in U2OS cells (Homo sapiens, UniProt Q96GG9); assay: Cellular thermal shift assay (CETSA), DCN1; assay type: cell-based; settings: 1 h, 53 °C
# T2 construct: endogenous in cells; host or cells: U2OS
# T2 sequence (Q96GG9 whole entry): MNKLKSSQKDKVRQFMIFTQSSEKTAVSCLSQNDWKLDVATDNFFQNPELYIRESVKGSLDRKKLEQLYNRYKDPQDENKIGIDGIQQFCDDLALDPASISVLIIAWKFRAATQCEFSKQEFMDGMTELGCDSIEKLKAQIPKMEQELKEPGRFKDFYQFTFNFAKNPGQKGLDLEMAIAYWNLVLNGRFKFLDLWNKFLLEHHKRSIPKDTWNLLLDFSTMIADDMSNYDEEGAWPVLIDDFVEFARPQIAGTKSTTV
# Experimental: as §1
# [4] = target: T3, DCN1 (Homo sapiens, UniProt Q96GG9); assay: Intact-protein mass spectrometric analysis, Method B (DCN1); assay type: binding; settings: 1 h incubation, 100 nM protein
# T3 sequence (Q96GG9 whole entry, the tested form may be a part): as the sequence (Q96GG9 whole entry) above
# Experimental: Method B: Recombinant DCN1 or DCN3 protein (100 nM in 25 mM Tris 7.5, 200 mM NaCl, 1 mM DTT buffer) was incubated with 1.2-fold excess of the DCN1 inhibitors at 37 °C for 10 min, 1 h, or 3 h. Following incubation, the protein was analyzed by LC–MS (Agilent Q-TOF 6545) under the following conditions: fragmentor voltage, 300 V; skimmer voltage, 75 V; nozzle voltage, 100 V; sheath gas temperature, 350 °C; and drying gas temperature, 325 °C. MassHunter Qualitative Analysis software (Agilent) was used to analyze the data. Intact protein masses were obtained using the maximum entropy deconvolution algorithm. The mass spectrometry data in Supplementary Figs. 14–17 were generated by Method B.
# [5] = Cell viability assay (WST-8), MDA-MB-231; assay type: cell-based, human; settings: human, MDA-MB-231 cells, replicates, read-out: cell viability relative to control
# Procedure, shortened: (§2)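 Cells (2000–3000 per well) were treated with serial dilutions of DCN1 inhibitors for 3 days, then incubated 1–3 h with WST-8 and absorbance read at 450 nm. Growth inhibition was sample-to-control absorbance ratio, with EC50 from fitted curves.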
# [6] = test system: MDA-MB-231 cells; assay: Cell viability assay (WST-8), MDA-MB-231; assay type: cell-based, human; settings: for cell viability relative to control: replicates
# Procedure, shortened: as §2
# [7] = target: T3, DCN1; assay: Competitive FP binding assay
# Experimental: Competitive FP binding assay was performed as previously described. The IC50 and Ki values of DI-1548 and DI-1548DD were determined in competitive binding experiments. Mixtures of preincubated protein/probe complex solution in the assay buffer (196 μL) and compounds in DMSO (4 μL) were added into assay plates which were incubated at room temperature for 30 min with gentle shaking. The concentrations of DCN1 protein and fluorescent probe were 50 and 5 nM, respectively. […] FP values in millipolarization units were measured using the Infinite M-1000 plate reader (Tecan U.S., Research Triangle Park, NC) in Microfluor 1 96-well, black, round-bottom plates (Thermo Fisher Scientific, Waltham, MA) at an excitation wavelength of 485 nm and an emission wavelength of 530 nm. IC50 values were determined by nonlinear regression fitting of the competition curves using the dose–response inhibition equation (four parameters, variable slopes) included in the Prism/GraphPad software. Ki values were calculated using methods described previously.
structure (smiles),measurement,setting,value
C=C(CN1CCOCC1)C(=O)NC[C@@H](NC(=O)[C@H](Cc1nc2ccc(C(C)C)cc2s1)NC(=O)CC)C1CCCCC1 [DI-1548],cytotoxicity / cell viability,[1],no cytotoxicity
same,effect on the thermal stability of cellular DCN3 protein,[2],no discernible effect
same,concentration as low as which the thermal stability of cellular DCN1 protein is enhanced,[3],≤ 0.3 nM
same,times more potent than DI-591 and DI-1548DD in enhancing the thermal stability of cellular DCN1 protein,[3],> 1000 times
same,covalent complex formation with DCN1,[4],rapid and complete formation
same,viability at 72 h,"[5]; conc 30, 72 h",105%
same,viability at 72 h,"[5]; conc 100, 72 h",97.2%
same,EC50,"[6]; Homo sapiens, MDA-MB-231, 72 h, cell line assigned from panel order, read-out: EC50, cell growth inhibition",> 1000 nM
same,cell viability relative to control,"[6]; conc 10, 72 h",103.908 and 110.805 and 88.1609
same,cell viability relative to control,"[6]; conc 30, 72 h",104.754 and 102.705
same,cell viability relative to control,"[6]; conc 100, 72 h",102.874 and 99.4253
same,cell viability relative to control,"[6]; conc 300, 72 h",87.0115 and 106.207 and 84.7126
same,cell viability relative to control,"[6]; conc 1000, 72 h",77.0115 and 107.241 and 112.414
same,FP signal of the competitive binding curve,"[7]; Concentration (nM) 0.016935, duplicates",44.2 and 44.7
same,FP signal of the competitive binding curve,"[7]; Concentration (nM) 0.050805, duplicates",43.5 and 45.8
same,FP signal of the competitive binding curve,"[7]; Concentration (nM) 0.152416, duplicates",44.1 and 44.8
same,FP signal of the competitive binding curve,"[7]; Concentration (nM) 0.457247, duplicates",43.8 and 44
same,FP signal of the competitive binding curve,"[7]; Concentration (nM) 1.37174, duplicates",41.3
same,FP signal of the competitive binding curve,"[7]; Concentration (nM) 4.11523, duplicates",32.5 and 31.9
same,FP signal of the competitive binding curve,"[7]; Concentration (nM) 12.3457, duplicates",17.8 and 17.9
same,FP signal of the competitive binding curve,"[7]; Concentration (nM) 37.037, duplicates",15.7 and 15.4
same,FP signal of the competitive binding curve,"[7]; Concentration (nM) 111.111, duplicates",14.3 and 14.5
same,FP signal of the competitive binding curve,"[7]; Concentration (nM) 333.333, duplicates",15.3 and 15.7
same,FP signal of the competitive binding curve,"[7]; Concentration (nM) 1000, duplicates",16.2 and 15.8
same,IC50,"[7]; DCN1 50 nM, probe 5 nM, 30 min",4.6 nM
same,Ki,"[7]; DCN1 50 nM, probe 5 nM, 30 min",< 1 nM

# Source: article PMC8113459, “Selective inhibition of cullin 3 neddylation through covalent targeting DCN1 protects mice from acetaminophen-induced liver toxicity” (Nature Communications, 2021)
